# Test results: article PMC6340938, “Three Novel ACE Inhibitory Peptides Isolated From Ginkgo biloba Seeds: Purification, Inhibitory Kinetic and Mechanism” (Frontiers in Pharmacology, 2019)
# Read-outs that look alike come from different tables or passages of the source. Where no end group is shown, it is not given here.
# Key:
# [1] = currently used blood pressure lowering drugs; ref Yu et al., 2018; cited from earlier work
# Excerpt: As per the World Health Organization estimate, CVD accounts for the mortality of more than 17.5 million people every year. Among the important characteristics of CVD, hypertension is an essential target for the prevention and treatment of CVD ([Celermajer et al., 2012]). […] Lately, signific ...
# [2] = target: T1, angiotensin converting enzyme (ACE) (Homo sapiens, UniProt P12821); assay: Kinetics of ACE inhibition, Lineweaver-Burk plot; type: biochemical; conditions: HHL 0.5, 1, 2, 5 mM, peptide 0, 15, 30 μM
# Procedure: The kinetic inhibition model of G. biloba peptide was tested using the method of [Lin et al. (2017)]. Briefly, different concentrations of substrate HHL (0.5, 1, 2, and 5 mM) were allowed to react with ACE. The Lineweaver-Burk plot was based on the reciprocal of the reaction rate (1/v) and the substrate concentration (1/[s]). The intercepts on the X- and Y-axes represented the reciprocals of Km and Vmax, respectively.
# FIGURE 5 The Lineweaver-Burk plot of the inhibitory effects on ACE activities of peptides. (A) TNLDWY, (B) RADFY, and (C) RVFDGAV. The ACE activities were determined in the absence and presence of different concentrations of the peptides (0, 15, and 30 μM).
# [3] = target: T1, angiotensin converting enzyme (ACE); assay: ACE inhibitory activity, HHL substrate, RP-HPLC of hippuric acid; type: biochemical; conditions: synthetic peptides, purity >95%; HHL 5 mM, borate pH 8.3, 0.3 M NaCl, 37°C, 45 min, ACE 50 mU/mL; RP-HPLC 228 nm; mean, n = 3
# Procedure: This test was performed as per the descriptions are given by the previous report by [O’Loughlin et al. (2014)] with some modifications. Briefly, the substrate hippuryl-histidyl-leucine (HHL, 5 mM) and samples were mixed in 0.1 M Na2[B4O5(OH)4] (pH 8.3) with 0.3 M sodium chloride. Then after, 50 μL of sample and 150 μL of the substrate were added to a centrifuge tube, mixed and allowed to stand in water at 37°C for 5 min. Subsequently, the ACE solution (50 mU/mL) was added and incubated at 37°C for 45 min. The reaction was terminated by adding 250 μL of 1M HCl and the solution was filtered through […] nylon syringe filter before being analyzed by RP-HPLC (Waters, Milford, MA, United States) on an Inertsil ODS-3 (250 × 4.6 mm, 5 μm particle size). The mobile phase comprised of distilled water: acetonitrile = 75:25 (V/V, with 0.1% TFA) with a flow rate of 0.5 mL/min and detection at 228 nm. Captopril was used as a control and the inhibitory activity (%) was determined as below:
# ACE inhibitory activity (%)=[(A−B)/A]×100
# where A was the peak area of hippuric acid with the sample, B was without the sample.
# ACE = conditions: 2017, cited from earlier work; for Inhibition mode: ref Lin et al.; for ACE inhibitory activity (in words): peptides containing hydrophobic amino acid (Leu), ref Lee and Hur
# Excerpt: According to report by [Hernández-Ledesma et al. (2011)], most of the ACE inhibiting peptides were short sequences consisting of 2–12 amino acids. In addition, the activity of the ACE-inhibiting peptide was strongly related to the pres ... || The mode of inhibition of ACE-inhibiting peptides was observed generally non-competitive, competitive, and mixed.
# [4] = Qula casein and hazelnut peptides, Liu et al., 2018
# T1 sequence (P12821 30-1306, species assumed): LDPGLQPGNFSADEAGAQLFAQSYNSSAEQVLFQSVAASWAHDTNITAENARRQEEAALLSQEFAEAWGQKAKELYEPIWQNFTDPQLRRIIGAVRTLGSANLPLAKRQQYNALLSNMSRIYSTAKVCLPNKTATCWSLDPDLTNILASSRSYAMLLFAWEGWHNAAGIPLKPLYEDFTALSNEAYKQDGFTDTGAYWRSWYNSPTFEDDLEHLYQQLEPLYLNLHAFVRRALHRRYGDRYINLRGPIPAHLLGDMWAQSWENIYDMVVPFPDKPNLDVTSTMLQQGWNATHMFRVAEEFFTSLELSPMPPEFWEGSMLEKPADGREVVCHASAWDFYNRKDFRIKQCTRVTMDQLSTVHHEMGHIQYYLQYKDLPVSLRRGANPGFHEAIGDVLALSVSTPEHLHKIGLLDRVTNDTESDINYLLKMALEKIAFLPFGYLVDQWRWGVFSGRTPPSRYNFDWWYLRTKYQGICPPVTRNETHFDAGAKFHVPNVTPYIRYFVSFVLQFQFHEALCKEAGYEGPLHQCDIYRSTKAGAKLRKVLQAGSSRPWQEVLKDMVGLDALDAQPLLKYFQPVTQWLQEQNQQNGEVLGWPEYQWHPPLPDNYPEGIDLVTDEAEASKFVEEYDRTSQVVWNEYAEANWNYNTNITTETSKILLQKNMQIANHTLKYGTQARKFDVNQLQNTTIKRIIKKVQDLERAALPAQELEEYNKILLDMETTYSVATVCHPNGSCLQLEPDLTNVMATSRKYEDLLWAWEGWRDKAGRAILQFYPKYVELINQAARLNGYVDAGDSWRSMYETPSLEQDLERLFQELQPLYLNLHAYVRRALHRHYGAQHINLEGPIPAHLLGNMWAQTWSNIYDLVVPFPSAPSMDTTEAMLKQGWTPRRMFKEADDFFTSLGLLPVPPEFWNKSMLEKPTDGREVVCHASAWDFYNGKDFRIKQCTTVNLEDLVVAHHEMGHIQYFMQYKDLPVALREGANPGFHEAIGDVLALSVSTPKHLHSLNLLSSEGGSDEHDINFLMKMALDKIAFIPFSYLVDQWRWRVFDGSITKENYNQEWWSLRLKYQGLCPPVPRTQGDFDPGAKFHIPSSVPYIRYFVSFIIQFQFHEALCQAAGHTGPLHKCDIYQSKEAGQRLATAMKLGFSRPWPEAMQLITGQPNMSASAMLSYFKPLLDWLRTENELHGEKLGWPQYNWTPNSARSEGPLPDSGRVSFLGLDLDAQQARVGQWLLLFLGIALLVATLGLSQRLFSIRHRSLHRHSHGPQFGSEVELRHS
compound,measurement,setting,value
CCOC(=O)[C@H](CCc1ccccc1)N[C@@H](C)C(=O)N1CCC[C@H]1C(=O)O [enalapril],Adverse reactions,[1],"cough, rash, and headache"
"RADFY [RADFY, Arg-Ala-Asp-Phe-Tyr]",Effect on Km,[2],Km increased with the increasing peptide concentration
same,IC50,[3],1.35 mM
LPLPLL [peptide from Qula casein],Inhibition mode,ACE; peptides from Qula casein,competitive inhibition mode
"RVFDGAV [RVFDGAV, Arg-Val-Phe-Asp-Gly-Ala-Val]",Effect on Km,[2],Km increased with the increasing peptide concentration
same,IC50,[3],1.01 mM
C[C@H](CS)C(=O)N1CCC[C@H]1C(=O)O [captopril],Adverse reactions,[1],"cough, rash, and headache"
KPLL,ACE inhibitory activity (in words),ACE,appreciable ACE inhibitory activity
YLVR [hazelnut peptide],Inhibition mode,ACE; [4],non-competitive
PFPGPIPN,Inhibition mode,ACE; [4],non-competitive
"TNLDWY [TNLDWY, Thr-Asn-Leu-Asp-Trp-Tyr]",Effect on Km,[2],Km did not change significantly with peptide concentration
same,IC50,[3],1.93 mM
VLAQYK,ACE inhibitory activity (in words),ACE,appreciable ACE inhibitory activity
KYIPIQ [peptide from Qula casein],Inhibition mode,ACE; peptides from Qula casein,competitive inhibition mode
